# Source: patent US10829481B2, “Benzimidazole derivatives as modulators of ROR-gamma” (Vitae Pharmaceuticals, LLC, priority 2016, dated 2020)
# Assays:
# [1] = biological target: recombinant RORγ Ligand Binding Domain (LBD) protein (Homo sapiens (Human), UniProt P51449); experiment: Radio-Ligand RORγ Binding Assay (Assay 1); details: competition with 25-hydroxy [26,27-3H]-cholesterol, SPA
# Procedure: Radio-Ligand RORγ Binding Assay (Assay 1)
# Compounds described herein were tested for ability to bind to RORγ in a cell-free competition assay with commercially available radio-ligand (RL), 25-hydroxy [26,27-^3H]-cholesterol (PerkinElmer, Cat. #NET674250UC), for a ligand binding site on a recombinant RORγ Ligand Binding Domain (LBD) protein expressed as a 6×His-Glutathione-S-Transferase (GST) fusion. The assay was performed in 96-well SPA plates (PerkinElmer, Cat. #1450-401) in 50 mM HEPES buffer, pH 7.4, containing 150 mM NaCl, 5 mM MgCl2, 10% (v/v) glycerol, 2 mM CHAPS, 0.5 mM β-octylglucopyranoside and 5 mM DTT. Tested compounds were dissolved in DMSO, and semi-log (3.162×) serial dilutions of the compounds were prepared in the same solvent. Two μL of the DMSO solutions were mixed with 28 μL of 8.6 nM 25-hydroxy [26,27-^3H]-cholesterol and 50 μL of 24 nM RORγ LBD. The plate was shaken at 700 rpm for 20 min and incubated for 10 min at rt, after which 40 μL of poly-Lys YSi SPA beads (PerkinElmer, Cat. #RPNQ0010) were added to achieve […] of the beads per well. The plate was incubated on an orbital shaker for 20 min and then for 10 min without agitation at rt. SPA signal for tritium beta radiation was registered on PerkinElmer Microbeta plate reader. […] The percent inhibition vs. concentration data were fit into a four-parameter model, and IC50 values were calculated from the fit as the concentrations corresponding to the inflection points on the dose-response curves. Inhibitory constants (Ki) were calculated using the following equation, where [RL] is the concentration in the assay and KD is a dissociation constant of 25-hydroxy [26,27-^3H]-cholesterol: […]
# [2] = biological target: full-length RORγt in Jurkat cells (Homo sapiens (Human), UniProt P51449); experiment: RORγt 5×RORE Assay in Jurkat Cells (Assay 2); format: cell-based; details: 5×RORE Nanoluc luciferase reporter
# Chain of full-length RORγt in Jurkat cells (P51449 other isoform, or with tags, fused parts or gaps): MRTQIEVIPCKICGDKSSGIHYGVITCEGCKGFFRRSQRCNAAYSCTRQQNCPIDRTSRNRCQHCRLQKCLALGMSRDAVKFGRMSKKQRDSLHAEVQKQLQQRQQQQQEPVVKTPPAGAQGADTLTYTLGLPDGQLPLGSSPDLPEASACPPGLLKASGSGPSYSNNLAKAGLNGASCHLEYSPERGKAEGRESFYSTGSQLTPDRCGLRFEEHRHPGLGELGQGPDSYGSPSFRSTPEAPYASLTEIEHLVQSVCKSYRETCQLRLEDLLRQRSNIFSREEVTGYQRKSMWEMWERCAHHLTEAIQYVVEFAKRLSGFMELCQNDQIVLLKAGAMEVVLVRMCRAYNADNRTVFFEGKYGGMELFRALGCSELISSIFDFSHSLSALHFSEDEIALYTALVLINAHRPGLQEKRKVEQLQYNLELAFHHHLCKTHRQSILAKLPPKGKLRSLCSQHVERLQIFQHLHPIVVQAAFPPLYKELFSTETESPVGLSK
# Procedure: RORγt 5×RORE Assay in Jurkat Cells (Assay 2)
# Compounds described herein were tested for RORγ inverse agonist activity in a cell-based, transcriptional activity assay. Secreted Nanoluc® luciferase was used as a reporter for transcriptional activity of the full-length RORγt in Jurkat cells (ATCC, Cat. #TIB-152). […] (Promega, Cat. #N1021) using KpnI and HindIII restriction sites. […] After 5-6 hrs of incubation at 37° C./5% CO2, the cells were collected, resuspended in phenol-red free RPMI media containing 10% (v/v) delipidated FBS (Hyclone, Cat. #SH30855.03) and dispensed into 96-well clear bottom tissue culture plates (CoStar, Cat. #3603), at 80,000 cells per well. Tested compounds were added to the cells in the same media (final concentration of DMSO was 0.1% (v/v)), and the plates were incubated at 37° C./5% CO2 for 16-18 hrs. Luciferase activity in the conditioned supernatants was determined with NanoGlo® assay reagents (Promega, Cat. #N1130).
# Chain of recombinant RORγ Ligand Binding Domain (LBD) protein (P51449 269-508): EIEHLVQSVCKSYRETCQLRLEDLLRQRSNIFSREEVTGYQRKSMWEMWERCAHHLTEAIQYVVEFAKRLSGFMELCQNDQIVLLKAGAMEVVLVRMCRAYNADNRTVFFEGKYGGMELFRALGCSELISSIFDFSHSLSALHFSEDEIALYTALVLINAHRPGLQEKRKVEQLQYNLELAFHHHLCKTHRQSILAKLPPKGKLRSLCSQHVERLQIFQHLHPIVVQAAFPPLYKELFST
Compound,Ki [1],IC50 [2]
"CCS(=O)(=O)c1ccc(CNC(=O)c2ccc3c(c2)nc(C(C)C)n3Cc2cccc3c2OC(F)(F)O3)cc1 [I-31, 1-((2,2-difluorobenzo[d][1,3]dioxol-4-yl)methyl)-N-(4-(ethylsulfonyl)benzyl)-2-isopropyl-1H-benzo[d]imidazole-5-carboxamide]",< 0.1 µM,< 0.1 µM
"CS(=O)(=O)N1CCC([C@@H](CO)NC(=O)c2ccc3c(c2)nc(C(F)(F)F)n3Cc2cccc3c2OC(F)(F)O3)CC1 (mixture of isomers) [I-164.1, (R)-1-((2,2-difluorobenzo[d][1,3]dioxol-4-yl)methyl)-N-(2-hydroxy-1-(1-(methylsulfonyl)piperidin-4-yl)ethyl)-2-(trifluoromethyl)-1H-benzo[d]imidazole-5-carboxamide and (S)-1-((2,2-difluorobenzo[d][1,3]dioxol-4-yl)methyl)-N-(2-hydroxy-1-(1-(methylsulfonyl)piperidin-4-yl)ethyl)-2-(trifluoromethyl)-1H-benzo[d]imidazole-5-carboxamide]",< 0.1 µM,< 0.1 µM
"CCS(=O)(=O)c1ccc(CNC(=O)c2ccc3c(c2)nc(CC(C)C)n3Cc2cccc3c2OC(F)(F)O3)cc1 [I-33, 1-((2,2-difluorobenzo[d][1,3]dioxol-4-yl)methyl)-N-(4-(ethylsulfonyl)benzyl)-2-isobutyl-1H-benzo[d]imidazole-5-carboxamide]",< 0.1 µM,< 0.1 µM
"COC(=O)CS(=O)(=O)N1CCC(CNC(=O)c2ccc3c(c2)nc(C(F)(F)F)n3Cc2cccc3c2OC(F)(F)O3)CC1 [I-74, methyl 2-((4-((1-((2,2-difluorobenzo[d][1,3]dioxol-4-yl)methyl)-2-(trifluoromethyl)-1H-benzo[d]imidazole-5-carboxamido)methyl)piperidin-1-yl)sulfonyl)acetate]",< 0.1 µM,< 0.1 µM
"CS(=O)(=O)c1ccc(CNC(=O)c2ccc3c(c2)nc(C(F)(F)F)n3Cc2cccc3c2OC(F)(F)O3)cc1 [I-48, 1-((2,2-difluorobenzo[d][1,3]dioxol-4-yl)methyl)-N-(4-(methylsulfonyl)benzyl)-2-(trifluoromethyl)-1H-benzo[d]imidazole-5-carboxamide]",< 0.1 µM,< 0.1 µM
"CCS(=O)(=O)c1ccc([C@H](COC)NC(=O)c2ccc3c(c2)nc(C(F)(F)F)n3Cc2cccc3c2OC(F)(F)O3)cc1 [I-59, (R)-1-((2,2-difluorobenzo[d][1,3]dioxol-4-yl)methyl)-N-(1-(4-(ethylsulfonyl)phenyl)-2-methoxyethyl)-2-(trifluoromethyl)-1H-benzo[d]imidazole-5-carboxamide]",< 0.1 µM,< 0.1 µM
"CS(=O)(=O)c1ccc([C@H](CO)NC(=O)c2ccc3c(c2)nc(C(F)F)n3Cc2cccc3c2OC(F)(F)O3)cc1 [I-23.1, (R)-1-((2,2-difluorobenzo[d][1,3]dioxol-4-yl)methyl)-2-(difluoromethyl)-N-(2-hydroxy-1-(4-(methylsulfonyl)phenyl)ethyl)-1H-benzo[d]imidazole-5-carboxamide]",< 0.1 µM,< 0.1 µM
"CS(=O)(=O)N1CCC(CNC(=O)c2ccc3c(c2)nc(C2CC2)n3Cc2cccc3c2OC(F)(F)O3)CC1 [I-72, 2-cyclopropyl-1-((2,2-difluorobenzo[d][1,3]dioxol-4-yl)methyl)-N-((1-(methylsulfonyl)piperidin-4-yl)methyl)-1H-benzo[d]imidazole-5-carboxamide]",< 0.1 µM,< 0.1 µM
"CCS(=O)(=O)c1ccc(CNC(=O)c2ccc3c(c2)nc([C@H]2CCCO2)n3Cc2cccc3c2OC(F)(F)O3)cc1 [I-39.1, (R)-1-((2,2-difluorobenzo[d][1,3]dioxol-4-yl)methyl)-N-(4-(ethylsulfonyl)benzyl)-2-(tetrahydrofuran-2-yl)-1H-benzo[d]imidazole-5-carboxamide]",< 0.1 µM,< 0.1 µM
"CCS(=O)(=O)c1ccc(CC(=O)Nc2ccc3c(c2)nc(C(F)(F)F)n3Cc2cccc3c2OC(F)(F)O3)cc1 [I-1, N-(1-((2,2-difluorobenzo[d][1,3]dioxol-4-yl)methyl)-2-(trifluoromethyl)-1H-benzo[d]imidazol-5-yl)-2-(4-(ethylsulfonyl)phenyl)acetamide]",< 0.1 µM,< 0.1 µM
"CNS(=O)(=O)c1ccc(CNC(=O)c2ccc3c(c2)nc(C(F)(F)F)n3Cc2cccc3c2OC(F)(F)O3)cc1 [I-46, 1-((2,2-difluorobenzo[d][1,3]dioxol-4-yl)methyl)-N-(4-(N-methylsulfamoyl)benzyl)-2-(trifluoromethyl)-1H-benzo[d]imidazole-5-carboxamide]",< 0.1 µM,< 0.1 µM
"CCc1nc2cc(C(=O)N[C@@H](CO)c3ccc(S(=O)(=O)CC)cc3)ccc2n1Cc1cccc2c1OC(F)(F)O2 [I-16, (R)-1-((2,2-difluorobenzo[d][1,3]dioxol-4-yl)methyl)-2-ethyl-N-(1-(4-(ethylsulfonyl)phenyl)-2-hydroxyethyl)-1H-benzo[d]imidazole-5-carboxamide]",< 0.1 µM,< 0.1 µM

# The next lines start with the values.
Ki [1],IC50 [2],Compound
< 0.1 µM,< 0.1 µM,"CCS(=O)(=O)c1ccc([C@H](CO)NC(=O)c2ccc3c(c2)nc(C(F)(F)F)n3Cc2cccc3c2OCO3)cc1 [I-81, (R)-1-(benzo[d][1,3]dioxol-4-ylmethyl)-N-(1-(4-(ethylsulfonyl)phenyl)-2-hydroxyethyl)-2-(trifluoromethyl)-1H-benzo[d]imidazole-5-carboxamide]"
< 0.1 µM,< 0.1 µM,"CCS(=O)(=O)c1ccc([C@@H](CO)NC(=O)c2ccc3c(c2)nc(C2CCC2)n3Cc2cccc3c2OC(F)(F)O3)nc1 [I-132.2, (S)-2-cyclobutyl-1-((2,2-difluorobenzo[d][1,3]dioxol-4-yl)methyl)-N-(1-(5-(ethylsulfonyl)pyridin-2-yl)-2-hydroxyethyl)-1H-benzo[d]imidazole-5-carboxamide]"
< 0.1 µM,0.1 to 1 µM,"CCS(=O)(=O)c1ccc(CNC(=O)c2ccc3c(c2)nc(C2CC2)n3Cc2ccccc2OC(F)(F)F)cc1 [I-106, 2-cyclopropyl-N-(4-(ethylsulfonyl)benzyl)-1-(2-(trifluoromethoxy)benzyl)-1H-benzo[d]imidazole-5-carboxamide]"
< 0.1 µM,< 0.1 µM,"CCS(=O)(=O)c1ccc(CNC(=O)c2ccc3c(c2)nc(C(F)(F)F)n3Cc2cccc(C#N)c2)cc1 [I-90, 1-(3-cyanobenzyl)-N-(4-(ethylsulfonyl)benzyl)-2-(trifluoromethyl)-1H-benzo[d]imidazole-5-carboxamide]"
< 0.1 µM,< 0.1 µM,"CCS(=O)(=O)c1ccc([C@H](CO)NC(=O)c2ccc3c(c2)nc(C(F)(F)F)n3Cc2cccc3c2OC(F)(F)O3)c(F)c1 [I-123, (R)-1-((2,2-difluorobenzo[d][1,3]dioxol-4-yl)methyl)-N-(1-(4-(ethylsulfonyl)-2-fluorophenyl)-2-hydroxyethyl)-2-(trifluoromethyl)-1H-benzo[d]imidazole-5-carboxamide]"
< 0.1 µM,0.1 to 1 µM,"CCS(=O)(=O)c1ccc(CNC(=O)c2ccc3c(c2)nc(C(=O)OC)n3Cc2cccc3c2OC(F)(F)O3)cc1 [I-173, methyl 1-((2,2-difluorobenzo[d][1,3]dioxol-4-yl)methyl)-5-((4-(ethylsulfonyl)benzyl)carbamoyl)-1H-benzo[d]imidazole-2-carboxylate]"
< 0.1 µM,< 0.1 µM,"CCS(=O)(=O)c1ccc(CNC(=O)c2ccc3c(c2)nc(C2CC2)n3Cc2cccc(OC(F)F)c2)cc1 [I-113, 2-cyclopropyl-1-(3-(difluoromethoxy)benzyl)-N-(4-(ethylsulfonyl)benzyl)-1H-benzo[d]imidazole-5-carboxamide]"
< 0.1 µM,< 0.1 µM,"CCS(=O)(=O)c1ccc(CNC(=O)c2ccc3c(c2)nc(C2CC2)n3Cc2cccc(OC(F)(F)F)c2)cc1 [I-109, 2-cyclopropyl-N-(4-(ethylsulfonyl)benzyl)-1-(3-(trifluoromethoxy)benzyl)-1H-benzo[d]imidazole-5-carboxamide]"
